From patent US20050054716A1, “Pharmaceutical compositions and methods of using taxane derivatives” (priority 2002, published 2005)
Values after ≈ are worked out from the molar mass of the structure shown.

How the values were obtained:
Type in all cases: physicochemical
[1] = Intrinsic aqueous solubility; conditions: desirable physiological pH range
Description: Therefore, it was necessary to formulate the compound in such a way to get the desired solubility at a physiological pH and maintain stability prior to administration.

[2] = Effect of pH on stability, 16.7% v/v ethanol:0.1M citrate buffers; conditions: 0.2 mg drug/mL, 2 days at 85° C.
Procedure: (§1) The effect of pH on the drug substance stability was also studied. The buffer pH providing maximum stability was determined by comparing the stability of prototype formulations of the drug substance. […] Relative area percents of drug peaks were evaluated following 2 days storage at 85° C. […] Subsequent experiments evaluated stability (1 mg drug/mL) in 75% v/v ethanol:0.01M tartrate buffer. Three mL aliquots of samples were dispensed into 5 cc Type I glass vials and closed with West 4405/50 20 mm stoppers. Percent drug substance remaining, impurities and degradants were evaluated following 18 days storage at 50° C. and compared to initial values.

[3] = Effect of pH on stability, 75% v/v ethanol:0.01M tartrate buffer; conditions: 18 days at 50° C.
Procedure: as §1

[4] = Solubility in solutions of dehydrated alcohol and POE castor oil; conditions: Dehydrated Alcohol 7.50% v/v, POE Castor Oil 4% v/v
Procedure: However, this solution cannot be injected directly into patients as the non-aqueous components exceed 20%, thus potentially causing irritation at the injection site. […] It has been shown that the precipitation can be avoided by inclusion of a co-solvent such as polyoxyethylated (POE) castor oil in the formulation. Subsequently, solubility of the drug substance was determined in solutions containing various amounts of dehydrated alcohol and POE castor oil. Approximately 20 mg of drug was added to 3 mL aliquots of the solutions shown below in Table III. Samples were stirred for 16 hours, filtered trough 0.45 micron nylon syringe filters and analyzed by HPLC for drug concentration.

[5] = Dilution of 15 mg/mL ethanol/tartrate solution with aqueous diluents; conditions: 15 mg/mL in 75% ethanol/10 mM tartrate buffer diluted with 0.9% sodium chloride injection or 5% dextrose injection
[6] = Stability in solution containing ethanol and POE castor oil at 50° C.
Description: However, as shown below in Table IV, drug degradation occurs in a solution containing ethanol and POE castor oil due to peroxide impurities present in POE castor oil. […] As shown below, the stability of the solution containing POE castor oil was much lower than the injection solution without the co-solvent.

[7] = Stability of antioxidant formulation at 25° C. for 4 months; conditions: for Appearance / Potency / pH: formulation with 0.1% each of three antioxidants
Procedure: A formulation containing 1.5 mg/mL of Compound 1a, 0.075 mL/mL of ethanol, 0.04 mL/mL of POE castor oil in a tartrate buffer and containing 0.1% each of sodium formaldehyde sulfoxylate, L-cysteine HCl and ascorbic acid was prepared. Samples were placed on stability at 25° C. for 4 months. […] Additionally, there were no changes in potency or total oxidative degradants for the samples.

[8] = during 4 months of storage at 25° C.

CSCO[C@H]1C[C@H]2OC[C@@]2(OC(C)=O)[C@H]2[C@H](OC(=O)c3ccccc3)[C@]3(O)C[C@H](OC(=O)[C@H](O)[C@@H](NC(=O)c4ccccc4)c4ccccc4)C(C)=C([C@@H](OC(C)=O)C(=O)[C@]12C)C3(C)C [Compound Ia, 7-O-methylthiomethylpaclitaxel]
ionization [1]: does not ionize
buffer pH of best stability [2]: 4.5
apparent pH of most stable solution [3]: 5.4
tartrate buffer pH of most stable solution [3]: 3.8
Solubility [4]: 2380 µg/mL (≈ 2600 µM)
effect of aqueous dilution [5]: drug precipitation
Total Impurities ([6]; 6 days @ 50° C.): 10.9 area %
Total Impurities ([6]; 16 days @ 50° C.): 16.5 area %
Total Impurities ([6]; Initial): 2.1 area %
changes in appearance or pH [7, 8]: no significant changes
changes in potency or total oxidative degradants [7, 8]: no changes
Appearance ([7]; 2 Month at 25° C.): Clear, colorless
Potency ([7]; 2 Month at 25° C.): 1460 µg/mL (≈ 1600 µM)
pH ([7]; 2 Month at 25° C.): 3.56
Appearance ([7]; 4 Month at 25° C.): Clear, colorless
Potency ([7]; 4 Month at 25° C.): 1480 µg/mL (≈ 1620 µM)
pH ([7]; 4 Month at 25° C.): 3.57
Appearance ([7]; Initial): Clear, colorless
Potency ([7]; Initial): 1440 µg/mL (≈ 1580 µM)
pH ([7]; Initial): 3.71
